Results as given in BigSolDB 2.1.

CCOC(=O)C1(c2ccccc2)CCN(CCC(C#N)(c2ccccc2)c2ccccc2)CC1
solubility (mole fraction)
Conditions	278.15 K	283.15 K	288.15 K	293.15 K	298.15 K	303.15 K	308.15 K	313.15 K	318.15 K
in acetonitrile	0.00208	0.00256	0.0033	0.00386	0.00492	0.0059	0.00738	0.00941	0.0126
in ethanol	0.000882	0.00109	0.00127	0.00154	0.00193	0.00227	0.00277	0.0034	0.00432
in isopropanol	0.000106	0.000155	0.000208	0.000274	0.000421	0.000601	0.000838	0.00114	0.00156
in methanol	0.00341	0.00419	0.00501	0.0063	0.00759	0.00952	0.0118	0.0147	0.0186
in water	4.09e-06	5.3e-06	6.84e-06	9.18e-06	1.14e-05	1.48e-05	1.91e-05	2.54e-05	3.28e-05
